Reference: ChEMBL document CHEMBL4000250, “Synthesis of new derivatives of 21-imidazolyl-16-dehydropregnenolone as inhibitors of 5α-reductase 2 and with cytotoxic activity in cancer cells” (Bioorg Med Chem, 2017)
The source made the active and inactive calls. The rule behind the calls is not given here.

Assays:
Syrian golden hamster [1] = test: Hyperplasia activity in castrated golden hamster assessed as prostate weight at 2 mg/kg, sc co-administered with testosterone for 6 days (reference value: 98 +/- 12.6 mg); type: functional, Mesocricetus auratus
SK-LU-1 = test: Cytotoxicity against human SKLU1 cells assessed as growth inhibition at 50 uM after 48 hrs by sulforhodamine B assay relative to control; type: functional; details: for inhibition of growth at 50 µM: SK-LU-1, 48 h, read-out: GI
PC-3 = test: Cytotoxicity against human PC3 cells assessed as growth inhibition at 50 uM after 48 hrs by sulforhodamine B assay relative to control; type: functional; details: for inhibition of growth at 50 µM: PC-3, 48 h, read-out: GI
Syrian golden hamster [2] = test: Hyperplasia activity in castrated golden hamster assessed as diameter of pigmented spot of flank organs at 2 mg/kg, sc administered for 6 days (reference value: 5.65 +/- 1.12 mm); type: functional, Mesocricetus auratus
MCF7 = test: Cytotoxicity against human MCF7 cells assessed as growth inhibition at 50 uM after 48 hrs by sulforhodamine B assay relative to control; type: functional; details: for inhibition of growth at 50 µM: MCF7, 48 h, read-out: GI
[3] = biological target: T1, Androgen receptor (Rattus norvegicus) (UniProt P15207); test: (§1) Displacement of [3H]-MIB from rat prostate cytosolic androgen receptor by liquid scintillation counting method
T1 sequence (whole entry): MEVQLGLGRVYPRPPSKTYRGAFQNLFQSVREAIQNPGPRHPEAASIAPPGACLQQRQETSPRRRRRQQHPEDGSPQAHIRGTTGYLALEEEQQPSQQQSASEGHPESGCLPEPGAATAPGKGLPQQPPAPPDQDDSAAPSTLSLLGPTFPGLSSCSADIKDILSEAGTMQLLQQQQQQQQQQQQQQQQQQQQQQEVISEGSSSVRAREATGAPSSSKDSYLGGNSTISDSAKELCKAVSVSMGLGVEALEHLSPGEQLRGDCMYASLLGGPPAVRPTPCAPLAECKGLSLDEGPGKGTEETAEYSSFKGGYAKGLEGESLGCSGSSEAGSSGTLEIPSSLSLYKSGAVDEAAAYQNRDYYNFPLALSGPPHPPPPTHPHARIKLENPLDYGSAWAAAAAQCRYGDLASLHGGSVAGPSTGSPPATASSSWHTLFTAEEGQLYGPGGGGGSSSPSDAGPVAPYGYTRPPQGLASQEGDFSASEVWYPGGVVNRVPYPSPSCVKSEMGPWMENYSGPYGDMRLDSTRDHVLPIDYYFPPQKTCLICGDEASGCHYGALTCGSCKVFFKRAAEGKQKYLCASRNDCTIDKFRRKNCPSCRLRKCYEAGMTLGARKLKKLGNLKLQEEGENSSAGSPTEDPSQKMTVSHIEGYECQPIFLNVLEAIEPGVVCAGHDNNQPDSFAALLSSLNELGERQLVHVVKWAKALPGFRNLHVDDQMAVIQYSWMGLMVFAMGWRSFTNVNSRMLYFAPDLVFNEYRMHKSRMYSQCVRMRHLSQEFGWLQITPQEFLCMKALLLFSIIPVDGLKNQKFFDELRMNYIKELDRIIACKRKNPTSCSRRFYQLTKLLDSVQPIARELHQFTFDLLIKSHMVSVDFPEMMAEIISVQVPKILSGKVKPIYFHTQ

[4] = biological target: T2, 3-oxo-5-alpha-steroid 4-dehydrogenase 1 (Rattus norvegicus, UniProt P24008); test: Inhibition of rat liver microsomal 5-alpha reductase 1 assessed as decrease in conversion of testosterone to dihydrotestosterone by chromatographic method
T2 sequence (P24008 whole entry): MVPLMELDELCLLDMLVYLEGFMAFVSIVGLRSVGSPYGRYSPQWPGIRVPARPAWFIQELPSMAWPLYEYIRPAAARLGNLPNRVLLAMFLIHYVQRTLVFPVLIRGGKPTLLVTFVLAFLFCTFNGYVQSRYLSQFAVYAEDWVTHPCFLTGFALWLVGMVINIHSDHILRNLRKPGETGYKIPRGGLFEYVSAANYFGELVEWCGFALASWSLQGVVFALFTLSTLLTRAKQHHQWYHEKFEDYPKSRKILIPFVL

Syrian golden hamster [5] = test: Hyperplasia activity in castrated golden hamster assessed as seminal vesicles weight at 2 mg/kg, sc co-administered with testosterone for 6 days (reference value: 200.6 +/- 55 mg); type: functional, Mesocricetus auratus
[6] = biological target: T3, 3-oxo-5-alpha-steroid 4-dehydrogenase 2 (Homo sapiens, UniProt P31213); test: Inhibition of human prostate 5-alpha reductase 2 assessed as decrease in conversion of testosterone to dihydrotestosterone by chromatographic method
T3 sequence (P31213 whole entry): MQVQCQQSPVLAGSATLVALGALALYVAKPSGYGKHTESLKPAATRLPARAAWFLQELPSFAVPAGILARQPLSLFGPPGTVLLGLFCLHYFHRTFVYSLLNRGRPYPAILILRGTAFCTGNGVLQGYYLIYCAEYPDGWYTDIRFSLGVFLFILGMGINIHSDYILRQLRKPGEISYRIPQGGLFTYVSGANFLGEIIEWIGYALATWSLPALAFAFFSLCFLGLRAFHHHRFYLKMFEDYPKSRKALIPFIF

Syrian golden hamster [7] = test: Toxicity in castrated golden hamster at 2 mg/kg, sc co-administered with testosterone for 6 days; type: organism-based, Mesocricetus auratus; details: in vivo, 144 h
Androgen receptor = biological target: T4, Androgen receptor (Rattus norvegicus, UniProt P15207); test: as §1
T4 sequence (P15207 whole entry): T1 sequence (whole entry)

C[C@]12CC[C@H](OC(=O)C3CC3)CC1=CC[C@@H]1[C@@H]2CC[C@]2(C)C(C(=O)Cn3ccnc3)=CC[C@@H]12
Activity (Syrian golden hamster [1]): 77.1 mg
growth inhibition (GI) (SK-LU-1): inactive
growth inhibition (GI) (PC-3): inactive
Activity (Syrian golden hamster [2]): 3.4 mm
growth inhibition (GI) (MCF7): inactive
inhibition [3]: inactive
IC50 [4]: Not Active
Activity (Syrian golden hamster [5]): 160.9 mg
IC50 ([6]; read-out: IC50): 0.711 µM
Activity (Syrian golden hamster [7]): Non-Toxic

CC(=O)O[C@H]1CC[C@@]2(C)C(=CC[C@@H]3[C@@H]2CC[C@]2(C)C(C(=O)Cn4ccnc4)=CC[C@@H]32)C1
Activity (Syrian golden hamster [1]): 85.8 mg
inhibition of growth at 50 µM (SK-LU-1): 96.7%
inhibition of growth at 50 µM (PC-3): 79.6%
Activity (Syrian golden hamster [2]): 3.06 mm
inhibition of growth at 50 µM (MCF7): 77.9%
inhibition [3]: inactive
IC50 [4]: Not Active
Activity (Syrian golden hamster [5]): 200.5 mg
IC50 ([6]; read-out: IC50): 122 µM
Activity (Syrian golden hamster [7]): Non-Toxic

CCCC(=O)O[C@H]1CC[C@@]2(C)C(=CC[C@@H]3[C@@H]2CC[C@]2(C)C(C(=O)Cn4ccnc4)=CC[C@@H]32)C1
Activity (Syrian golden hamster [1]): 83.43 mg
inhibition of growth at 50 µM (SK-LU-1): 25.2%
inhibition of growth at 50 µM (PC-3): 0%
Activity (Syrian golden hamster [2]): 1.98 mm
inhibition of growth at 50 µM (MCF7): 0%
inhibition [3]: inactive
IC50 [4]: Not Active
Activity (Syrian golden hamster [5]): 217.45 mg
IC50 [6]: Not Active
Activity (Syrian golden hamster [7]): Non-Toxic

C[C@]12CC[C@H](OC(=O)C3CCCCCC3)CC1=CC[C@@H]1[C@@H]2CC[C@]2(C)C(C(=O)Cn3ccnc3)=CC[C@@H]12
Activity (Syrian golden hamster [1]): 70.8 mg
growth inhibition (GI) (SK-LU-1): inactive
growth inhibition (GI) (PC-3): inactive
Activity (Syrian golden hamster [2]): 2.8 mm
growth inhibition (GI) (MCF7): inactive
inhibition [3]: inactive
IC50 [4]: Not Active
Activity (Syrian golden hamster [5]): 143.6 mg
IC50 [6]: Not Active
Activity (Syrian golden hamster [7]): Non-Toxic

CCC(=O)O[C@H]1CC[C@@]2(C)C(=CC[C@@H]3[C@@H]2CC[C@]2(C)C(C(=O)Cn4ccnc4)=CC[C@@H]32)C1
Activity (Syrian golden hamster [1]): 88.4 mg
inhibition of growth at 50 µM (SK-LU-1): 16.8%
inhibition of growth at 50 µM (PC-3): 22.6%
Activity (Syrian golden hamster [2]): 1.8 mm
inhibition of growth at 50 µM (MCF7): 0%
inhibition [3]: inactive
IC50 [4]: Not Active
Activity (Syrian golden hamster [5]): 231.7 mg
IC50 [6]: Not Active
Activity (Syrian golden hamster [7]): Non-Toxic

C[C@@H]1CC2=CC(=O)CC[C@@H]2[C@H]2CC[C@@]3(C)[C@@H](CC[C@]3(C)O)[C@@H]21 [MIBOLERONE]
IC50 (Androgen receptor): 0.001 µM

C[C@]12CC[C@H](O)CC1=CC[C@@H]1[C@@H]2CC[C@]2(C)C(C(=O)Cn3ccnc3)=CC[C@@H]12
inhibition of growth at 50 µM (SK-LU-1): 74.8%
inhibition of growth at 50 µM (PC-3): 96.2%
inhibition of growth at 50 µM (MCF7): 89.4%
inhibition [3]: inactive
IC50 [4]: Not Active
IC50 ([6]; read-out: IC50): 119 µM

CCCCCC(=O)O[C@H]1CC[C@@]2(C)C(=CC[C@@H]3[C@@H]2CC[C@]2(C)C(C(=O)Cn4ccnc4)=CC[C@@H]32)C1
Activity (Syrian golden hamster [1]): 71.85 mg
inhibition of growth at 50 µM (SK-LU-1): 28.5%
inhibition of growth at 50 µM (PC-3): 17.2%
Activity (Syrian golden hamster [2]): 3.36 mm
inhibition of growth at 50 µM (MCF7): 28.1%
inhibition [3]: inactive
IC50 [4]: Not Active
Activity (Syrian golden hamster [5]): 198.33 mg
IC50 [6]: Not Active
Activity (Syrian golden hamster [7]): Non-Toxic

CCCCC(=O)O[C@H]1CC[C@@]2(C)C(=CC[C@@H]3[C@@H]2CC[C@]2(C)C(C(=O)Cn4ccnc4)=CC[C@@H]32)C1
Activity (Syrian golden hamster [1]): 80.93 mg
inhibition of growth at 50 µM (SK-LU-1): 39.2%
inhibition of growth at 50 µM (PC-3): 23.7%
Activity (Syrian golden hamster [2]): 2.94 mm
inhibition of growth at 50 µM (MCF7): 51.3%
inhibition [3]: inactive
IC50 [4]: Not Active
Activity (Syrian golden hamster [5]): 198.33 mg
IC50 [6]: Not Active
Activity (Syrian golden hamster [7]): Non-Toxic

CC(=O)O[C@H]1CC[C@@]2(C)C(=CC[C@@H]3[C@@H]2CC[C@]2(C)C(C(C)=O)=CC[C@@H]32)C1
inhibition of growth at 50 µM (SK-LU-1): 12.8%
inhibition of growth at 50 µM (PC-3): 21.4%
inhibition of growth at 50 µM (MCF7): 25.5%
inhibition [3]: inactive
IC50 [4]: Not Active
IC50 [6]: Not Active

C[C@]12CC[C@H](OC(=O)C3CCC3)CC1=CC[C@@H]1[C@@H]2CC[C@]2(C)C(C(=O)Cn3ccnc3)=CC[C@@H]12
Activity (Syrian golden hamster [1]): 71.3 mg
growth inhibition (GI) (SK-LU-1): inactive
growth inhibition (GI) (PC-3): inactive
Activity (Syrian golden hamster [2]): 3 mm
growth inhibition (GI) (MCF7): inactive
inhibition [3]: inactive
IC50 [4]: Not Active
Activity (Syrian golden hamster [5]): 145.2 mg
IC50 ([6]; read-out: IC50): 0.0764 µM
Activity (Syrian golden hamster [7]): Non-Toxic

C[C@]12CC[C@H](OC(=O)C3CCCCC3)CC1=CC[C@@H]1[C@@H]2CC[C@]2(C)C(C(=O)Cn3ccnc3)=CC[C@@H]12
Activity (Syrian golden hamster [1]): 54.3 mg
growth inhibition (GI) (SK-LU-1): inactive
growth inhibition (GI) (PC-3): inactive
Activity (Syrian golden hamster [2]): 2.4 mm
growth inhibition (GI) (MCF7): inactive
inhibition [3]: inactive
IC50 [4]: Not Active
Activity (Syrian golden hamster [5]): 143.68 mg
IC50 ([6]; read-out: IC50): 0.0293 µM
Activity (Syrian golden hamster [7]): Non-Toxic

C[C@]12CC[C@H](OC(=O)C3CCCC3)CC1=CC[C@@H]1[C@@H]2CC[C@]2(C)C(C(=O)Cn3ccnc3)=CC[C@@H]12
Activity (Syrian golden hamster [1]): 65.1 mg
growth inhibition (GI) (SK-LU-1): inactive
growth inhibition (GI) (PC-3): inactive
Activity (Syrian golden hamster [2]): 2 mm
growth inhibition (GI) (MCF7): inactive
inhibition [3]: inactive
IC50 [4]: Not Active
Activity (Syrian golden hamster [5]): 143.7 mg
IC50 ([6]; read-out: IC50): 0.035 µM
Activity (Syrian golden hamster [7]): Non-Toxic
